Reference: PubChem BioAssay AID230 (DTP/NCI, 2004)
Where “and” joins values, the source holds several entries; their conditions need not be identical. Identical values can stand only once. Toxic doses and inconclusive results are not listed.

System: C3H/He mice, Gardner lymphosarcoma 6C3HED ip, survival T/C
Test: NCI In Vivo Anticancer Drug Screen. Data for tumor model Lymphosarcoma Gardner 6C3HED (intraperitoneal) in C3H/He mice
Conditions: higher = longer survival
Method: The antitumor activity of compounds was measured in mice bearing transplantable tumors. Survival or tumor size were measured and the results are expressed as the measurement made in the treated group (T) divided by the measurement made in the vehicle treated control group (C). The tumor model used in this assay is Lymphosarcoma Gardner 6C3HED (intraperitoneal) in C3H/He mice

[1] = endpoint: survival time, mean or median, dose: 12.5 mg/kg/injection, schedule: Q01DX010 (ip), vehicle: saline
[2] = endpoint: survival time, mean or median, dose: 3.13 mg/kg/injection, schedule: Q01DX010 (ip), vehicle: saline
[3] = endpoint: survival time, mean or median, dose: 0.25 mg/kg/injection, schedule: Q01DX010 (ip), vehicle: saline

SMILES: CCC1=C(c2ccc(OC)cc2)CCC(C(=O)O)C1C (centres undefined)
- T/C (endpoint: survival time, mean or median, dose: 12.5 mg/kg/injection, schedule: Q01DX010 (sc), vehicle: steriod suspending solution): 96 % of control
- T/C (endpoint: survival time, mean or median, dose: 25.0 mg/kg/injection, schedule: Q01DX010 (sc), vehicle: steriod suspending solution): 107 % of control
- T/C (endpoint: survival time, mean or median, dose: 50.0 mg/kg/injection, schedule: Q01DX010 (sc), vehicle: steriod suspending solution): 92 % of control
- T/C (endpoint: survival time, mean or median, dose: 100.0 mg/kg/injection, schedule: Q01DX010 (sc), vehicle: steriod suspending solution): 100 % of control

SMILES: CC(CCC(C)OS(C)(=O)=O)OS(C)(=O)=O (centres undefined)
- T/C (endpoint: survival time, mean or median, dose: 4.0 mg/kg/injection, schedule: Q01DX010 (ip), vehicle: saline): 86 % of control
- T/C (endpoint: survival time, mean or median, dose: 8.0 mg/kg/injection, schedule: Q01DX010 (ip), vehicle: saline): 100 % of control

SMILES: O=P1(N(CCCl)CCCl)NCCCO1 (centres undefined)
- T/C (endpoint: median survival time, dose: 12.5 mg/kg/injection, schedule: Q01DX007 (ip), vehicle: saline): 116 % of control
- T/C (endpoint: median survival time, dose: 20.0 mg/kg/injection, schedule: Q01DX003 (ip), vehicle: saline): 163 % of control
- T/C (endpoint: median survival time, dose: 25.0 mg/kg/injection, schedule: Q01DX007 (ip), vehicle: saline): 116 % of control
- T/C (endpoint: median survival time, dose: 40.0 mg/kg/injection, schedule: Q01DX003 (ip), vehicle: saline): 209 % of control and 724 % of control
- T/C (endpoint: median survival time, dose: 80.0 mg/kg/injection, schedule: Q01DX003 (ip), vehicle: saline): 190 % of control and 722 % of control
- T/C (endpoint: survival time, mean or median, dose: 6.25 mg/kg/injection, schedule: Q01DX010 (ip), vehicle: saline): 100 % of control
- T/C [1]: 115 % of control
- T/C (endpoint: survival time, mean or median, dose: 50.0 mg/kg/injection, schedule: Q01DX010 (ip), vehicle: saline): 115 % of control

SMILES: NC(=O)CC(N)C(=O)O (centres undefined)
- T/C (endpoint: median survival time, dose: 100.0 mg/kg/injection, schedule: Q01DX005 (ip), vehicle: water): 92 % of control
- T/C (endpoint: median survival time, dose: 200.0 mg/kg/injection, schedule: Q01DX005 (ip), vehicle: water): 100 % of control
- T/C (endpoint: median survival time, dose: 400.0 mg/kg/injection, schedule: Q01DX005 (ip), vehicle: water): 92 % of control
- T/C (endpoint: median survival time, dose: 800.0 mg/kg/injection, schedule: Q01DX005 (ip), vehicle: water): 92 % of control

SMILES: Nc1c(Br)cc2c(c1Br)Cc1cc([N+](=O)[O-])ccc1-2
- T/C (endpoint: survival time, mean or median, dose: 7.8 mg/kg/injection, schedule: Q01DX010 (ip), vehicle: saline): 92 % of control

SMILES: C[N+](C)(C)c1ncnc2nc[nH]c12
- T/C (endpoint: survival time, mean or median, dose: 15.0 mg/kg/injection, schedule: Q01DX010 (ip), vehicle: saline): 92 % of control
- T/C (endpoint: survival time, mean or median, dose: 30.0 mg/kg/injection, schedule: Q01DX010 (ip), vehicle: saline): 96 % of control

SMILES: CCCSc1ncnc2nc[nH]c12
- T/C (endpoint: survival time, mean or median, dose: 125.0 mg/kg/injection, schedule: Q01DX010 (ip), vehicle: saline): 95 % of control
- T/C (endpoint: survival time, mean or median, dose: 250.0 mg/kg/injection, schedule: Q01DX010 (ip), vehicle: saline): 95 % of control

SMILES: O=[n+]1c2c(n([O-])c3ccccc31)-c1cccc3cccc-2c13
- T/C [2]: 86 % of control

SMILES: Nc1ncnc2c1ccn2C1OC(CO)C(O)C1O (centres undefined)
- T/C [3]: 90 % of control

SMILES: COc1cc2c(c(OC)c1OC)-c1ccc(OC)c(=O)cc1[C@@H](NC(C)=O)CC2
- T/C (endpoint: survival time, mean or median, dose: 0.01 mg/kg/injection, schedule: Q01DX010 (ip), vehicle: saline): 100 % of control
- T/C (endpoint: survival time, mean or median, dose: 0.02 mg/kg/injection, schedule: Q01DX010 (ip), vehicle: saline): 103 % of control
- T/C (endpoint: survival time, mean or median, dose: 0.04 mg/kg/injection, schedule: Q01DX010 (ip), vehicle: saline): 100 % of control
- T/C (endpoint: survival time, mean or median, dose: 0.08 mg/kg/injection, schedule: Q01DX010 (ip), vehicle: saline): 121 % of control

SMILES: CCC(=O)O[C@H]1CC[C@H]2[C@@H]3CCC4=CC(=O)CC[C@]4(C)[C@H]3CC[C@]12C
- T/C (endpoint: survival time, mean or median, dose: 62.5 mg/kg/injection, schedule: Q01DX010 (sc), vehicle: steriod suspending solution): 90 % of control
- T/C (endpoint: survival time, mean or median, dose: 125.0 mg/kg/injection, schedule: Q01DX010 (sc), vehicle: steriod suspending solution): 90 % of control
- T/C (endpoint: survival time, mean or median, dose: 250.0 mg/kg/injection, schedule: Q01DX010 (sc), vehicle: steriod suspending solution): 96 % of control
- T/C (endpoint: survival time, mean or median, dose: 500.0 mg/kg/injection, schedule: Q01DX010 (sc), vehicle: steriod suspending solution): 100 % of control

SMILES: [I][Hg][CH2]C1COC([CH2][Hg][I])CO1 (centres undefined)
- T/C (endpoint: survival time, mean or median, dose: 1.56 mg/kg/injection, schedule: Q01DX010 (ip), vehicle: saline): 93 % of control
- T/C [2]: 100 % of control

SMILES: CC(=O)NC1=C(N2CC2)C(=O)C(NC(C)=O)=C(N2CC2)C1=O
- T/C (endpoint: survival time, mean or median, dose: 0.13 mg/kg/injection, schedule: Q01DX010 (ip), vehicle: saline): 117 % of control
- T/C [3]: 92 % of control
- T/C (endpoint: survival time, mean or median, dose: 0.5 mg/kg/injection, schedule: Q01DX010 (ip), vehicle: saline): 103 % of control
- T/C (endpoint: survival time, mean or median, dose: 63.0 micrograms/kg/injection, schedule: Q01DX010 (ip), vehicle: saline): 170 % of control
- T/C (endpoint: survival time, mean or median, dose: 125.0 micrograms/kg/injection, schedule: Q01DX010 (ip), vehicle: saline): 204 % of control
- T/C (endpoint: survival time, mean or median, dose: 250.0 micrograms/kg/injection, schedule: Q01DX010 (ip), vehicle: saline): 114 % of control

SMILES: CC(=O)Nc1ccc2nc3ccc(NC(C)=O)cc3[n+](-c3ccccc3)c2c1
- T/C [1]: 107 % of control
- T/C (endpoint: survival time, mean or median, dose: 25.0 mg/kg/injection, schedule: Q01DX010 (ip), vehicle: saline): 107 % of control
- T/C (endpoint: survival time, mean or median, dose: 100.0 mg/kg/injection, schedule: Q01DX010 (ip), vehicle: saline): 89 % of control
